Consider three compounds from patent publication US9290792B2, “Method for measuring calcineurin activity” (UNIVERSITE PARIS DESCARTES, priority 2012, dated 2016).

The subject of assay [1] is kinases present in the cellular extracts (PBMC). Kind of assay: Calcineurin kinetic experiments in PBMC cytosolic proteins in the presence or absence of kinase inhibitors (LC-MS/MS of DP-RII peptide). It is filed as biochemical, human. The conditions noted are these: 5 μg PBMC cytosolic proteins from healthy volunteers, FIG. 1; for production of DP-RII peptide vs control: 37° C., up to 120 min, 500 nM okadaic acid, ANOVA test. On the procedure:
FIG. 1: Calcineurin kinetic experiments were performed in the presence or absence of two different kinase inhibitors. The production of DP-RII peptide was quantified using LC-MS/MS analysis.
PBMCs obtained from either healthy volunteers or transplant patients were resuspended in a buffer containing 50 mM Tris, pH=7.0, 0.1 mM EGTA, 0.05 mM dithiothreitol, 0.1% tween 20, 0.3 mg/mL albumin, 1 mM MnCl2, 1 mM CaCl2 and protease inhibitors. These cellular extracts were sonicated on ice, and centrifuged for 30 minutes at 10.000 g at 4° C. The supernatants corresponding primarily to the cytosolic fractions were recovered and their protein content was determined. These cellular extracts can be stored at −80° C. for later measurement of CN activity.
One to 5 μg of proteins obtained from PBMC, prepared as described above, were used for measuring calcineurin activity in a reaction mixture containing 500 nM okadaic acid, 1 mg/L internal standard, 20 μM H89, 8 mg/L phosphorylated RII peptide and 0.03 units calmodulin in 15 μL 50 mM Tris-HCl, pH=7.0. Enzymatic reaction was carried out at 37° C. for 30 min and then, the reaction tubes were cooled on ice and the enzymatic reaction was stopped by addition of 15 μL of a solution of 5% trichloroacetic acid. After centrifugation for 5 minutes at 12.000 g at 4° C., supernatants were transferred to […] into 1.5 mL glass autoinjector vials and kept at 4° C. in autosampler before injection. […]
The inventors assessed the kinetics of calcineurin in the presence or not of 2 different kinase inhibitors: H89, an unspecific inhibitor and Rp-adenosine 3′,5′-cyclic monophosphorothioate, a specific inhibitor of PKA.
A first set of experiments was performed using 5 μg of PBMC cytosolic proteins issued from healthy volunteers. […] The enzymatic reactions were stopped at the indicated time points (up to 120 min) and peptide amounts were quantified by LC-MS/MS.

Assay [2] deals with protein phosphatase 1 (PP-1). The note with it: cited from earlier work.
The target of assay [3] is protein phosphatase 2A (PP-2A). The conditions noted are these: cited from earlier work.
The target in assay [4] is protein phosphatase 2B (PP-2B). The conditions noted are these: cited from earlier work.

On to `O=S(=O)(NCCNC/C=C/c1ccc(Br)cc1)c1cccc2cnccc12` [H89], for which, in assay [1], the “production of DP-RII peptide vs control” value is listed as “significantly higher”. Besides, the “inhibition obtained vs that obtained with the PKA specific inhibitor” value in assay [1] (p=0.0163) is given as “significantly higher”.
One may read the IC50 as the concentration at which inhibition is half-maximal. As to `C=C1[C@@H](O)[C@@H]2O[C@]3(CC[C@H](/C=C/[C@@H](C)[C@@H]4CC(C)=C[C@@]5(O[C@H](C[C@@](C)(O)C(=O)O)CC[C@H]5O)O4)O3)CC[C@H]2O[C@@H]1[C@@H](O)C[C@H](C)[C@H]1O[C@@]2(CCCCO2)CC[C@H]1C` [Okadaic acid, 9,10-Deepithio-9,10-didehydroacanthifolicin], the IC50 in assay [2] is 20 to 100 nM; in assay [3] it was 0.1 to 1 nM; in assay [4], above 5000 nM.
Turning to `Nc1ncnc2c1ncn2[C@@H]1O[C@@H]2COP(O)(=S)O[C@H]2[C@H]1O` (stereo partly drawn) [PKA specific inhibitor, Rp-adenosine 3′,5′-cyclic monophosphorothioate], in assay [1], the “production of DP-RII peptide vs control” value is “significantly higher”.
